From US12226424B2, “Target protein degradation compounds, their anti-tumor use, their intermediates and use of intermediates” (ShanghaiTech University, priority 2018, dated 2025)
Where two headings read alike, the source gives them in different places.

What was measured:
[1] = system: SR cells; experiment: Half inhibitory concentration (IC50) on ALK-positive SR cell proliferation (CCK-8); type: cell-based; settings: Homo sapiens; SR cells, 72 h drug treatment, CCK-8; read-out: IC50 (nM)/ SR cell line
Method in brief: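 SR cells seeded at 10,000 cells/well in RPMI1640 and treated with PROTAD compounds at 10 concentrations (top 10 μM, 5-fold dilutions) for 72 h at 37° C, 5% CO2. Viability read by CCK-8 (2 h) at OD450; DMSO as negative control.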

[2] = target: T1, ALK protein (Homo sapiens, UniProt Q9UM73); experiment: Western-blot half degradation concentration (DC50) of ALK protein in SR cells; type: cell-based; settings: 24 h drug treatment, read-out: DC50 (nM)/ SR cell line
Experimental: ALK-positive SR cells (human large cell immunoblastic lymphoma) were purchased from the American Type Culture Collection (ATCC); H3122 cells (human non-small cell lung cancer) were from the Shanghai University of Science and Technology Lin Haifan's research group.
The cells used in this present disclosure were cultured in a 37° C. incubator containing 5% CO2.
DC50 (drug concentration corresponding to protein degradation to 50%) calculation: according to the gray value of the corresponding Western blotting band after drug treatment, fitting the relationship curve between drug concentration and gray value to calculate the drug concentration range corresponding to half of the gray value.
Target sequence in this assay (Q9UM73 with tags, fused parts or gaps): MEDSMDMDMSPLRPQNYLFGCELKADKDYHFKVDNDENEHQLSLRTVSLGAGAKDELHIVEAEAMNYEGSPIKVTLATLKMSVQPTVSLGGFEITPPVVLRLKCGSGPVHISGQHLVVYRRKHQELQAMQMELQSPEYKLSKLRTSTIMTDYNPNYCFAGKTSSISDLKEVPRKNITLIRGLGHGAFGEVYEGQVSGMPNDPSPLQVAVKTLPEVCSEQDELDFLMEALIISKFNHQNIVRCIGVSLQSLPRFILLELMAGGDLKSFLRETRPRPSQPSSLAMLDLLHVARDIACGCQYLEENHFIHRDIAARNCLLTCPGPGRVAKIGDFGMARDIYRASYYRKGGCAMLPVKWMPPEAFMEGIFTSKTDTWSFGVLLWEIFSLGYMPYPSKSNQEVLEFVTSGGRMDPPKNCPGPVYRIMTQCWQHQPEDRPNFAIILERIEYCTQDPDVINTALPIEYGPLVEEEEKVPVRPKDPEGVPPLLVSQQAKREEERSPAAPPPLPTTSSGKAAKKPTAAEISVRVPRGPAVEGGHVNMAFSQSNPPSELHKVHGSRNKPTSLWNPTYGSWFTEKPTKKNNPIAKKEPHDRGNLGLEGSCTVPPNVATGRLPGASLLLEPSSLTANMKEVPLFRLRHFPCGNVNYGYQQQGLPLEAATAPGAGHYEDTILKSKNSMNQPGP

[3] = target: T1, ALK protein; experiment: Western-blot half degradation concentration (DC50) of ALK protein in H3122 cells; type: cell-based; settings: 24 h drug treatment, read-out: DC50 (nM)/ H3122 cell line
Target sequence in this assay (Q9UM73 with tags, fused parts or gaps): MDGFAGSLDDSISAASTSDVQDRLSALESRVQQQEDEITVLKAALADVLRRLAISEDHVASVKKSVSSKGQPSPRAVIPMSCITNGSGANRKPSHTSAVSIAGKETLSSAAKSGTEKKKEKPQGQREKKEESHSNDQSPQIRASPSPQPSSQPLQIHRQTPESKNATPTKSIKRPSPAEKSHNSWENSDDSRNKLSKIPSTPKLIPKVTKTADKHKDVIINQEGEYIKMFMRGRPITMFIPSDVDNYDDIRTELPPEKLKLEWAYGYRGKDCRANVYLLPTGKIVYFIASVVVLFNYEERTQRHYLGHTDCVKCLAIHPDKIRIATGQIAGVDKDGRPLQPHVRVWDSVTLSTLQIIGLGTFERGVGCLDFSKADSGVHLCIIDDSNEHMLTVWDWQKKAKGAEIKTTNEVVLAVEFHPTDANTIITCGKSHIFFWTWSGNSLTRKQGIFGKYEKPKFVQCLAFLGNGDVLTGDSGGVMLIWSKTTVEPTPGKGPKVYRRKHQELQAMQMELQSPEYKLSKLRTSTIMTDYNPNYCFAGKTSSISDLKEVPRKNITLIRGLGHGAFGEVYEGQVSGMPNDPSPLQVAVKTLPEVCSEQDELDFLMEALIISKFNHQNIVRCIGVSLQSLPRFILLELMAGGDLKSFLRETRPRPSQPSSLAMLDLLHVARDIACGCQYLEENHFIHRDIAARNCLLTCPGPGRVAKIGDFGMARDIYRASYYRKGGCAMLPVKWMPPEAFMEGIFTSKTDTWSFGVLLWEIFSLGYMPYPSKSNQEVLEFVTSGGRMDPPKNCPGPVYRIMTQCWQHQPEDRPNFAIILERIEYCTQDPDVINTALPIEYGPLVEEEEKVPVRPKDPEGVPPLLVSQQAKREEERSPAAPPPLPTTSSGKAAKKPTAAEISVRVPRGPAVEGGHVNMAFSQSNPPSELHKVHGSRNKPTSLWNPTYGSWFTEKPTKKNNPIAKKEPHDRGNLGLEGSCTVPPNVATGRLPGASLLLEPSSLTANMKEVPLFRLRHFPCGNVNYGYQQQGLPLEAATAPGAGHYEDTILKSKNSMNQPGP

[4] = system: MDA-MB-468 cells; experiment: Half inhibitory concentration (IC50) on BET-expressing tumor cells, CCK-8, MDA-MB-468; type: cell-based; settings: Homo sapiens, 48/72 h, read-out: IC50 (nM)/MDA-MB-468 cell line
Experimental: (§1) BET-expressing cells MV-4-11 cells (human B granulocytic leukemia cells), MDA-MB-231 cells (human breast cancer cells), MDA-MB-468 cells (human breast cancer cells), MDA-MB-453 Cells (human breast cancer cells), MM1S cells (myeloma (immunoglobulin A lambda), B lymphoblasts) and SR cells (human large cell immunoblast lymphoma) were purchased from the American Type Culture Collection (ATCC).
(§2) The cells used in this present disclosure were cultured in a 37° C. incubator containing 5% CO2. The complete cell culture medium was RPMI 1640/IMDM/DMEM medium with 10% fetal bovine serum, and the final concentrations of penicillin and streptomycin were 100 U/mL, respectively. All cells were tested negative for mycoplasma with mycoplasma detection kit before the experiment.
(§3) Determination of the Half Inhibitory Concentration (IC50) of PROTAD Compounds on Tumor Cells
(§4) MV-411 cells, MM1S cells and SR cells were seeded in 100 μL IMDM/RPMI1640/DMEM complete medium at a density of 15000/10000 cells/well; MDA-MB-231 cells, MDA-MB-468 cells, and MDA-MB453 cells were seeded in 100 μL IMDM/RPMI1640/DMEM complete medium at a density of 3000/5000 cells/well, respectively. 100 μL of the inoculated cells were treated with 0.5 μL diluted PROTAD compounds of the present disclosure to be tested at 10 successively decreasing concentrations (starting at the highest concentration of 10 μM; 5-fold serial dilutions). After the cells were treated with the tested drugs 48/72 h, the cell viability was determined according to the CCK-8 reagent manual. The negative control was DMSO, and the positive control was a commercial inhibitor. After CCK-8 treatment for 2 h, the value of O.D.450 was measured using a microplate reader.

[5] = system: MDA-MB-231 cells; experiment: Half inhibitory concentration (IC50) on BET-expressing tumor cells, CCK-8, MDA-MB-231; type: cell-based; settings: Homo sapiens, 48/72 h, read-out: IC50 (nM)/MDA-MB-231 cell line
Experimental: as §1, §2, §3, §4

[6] = system: MM1S cells; experiment: Half inhibitory concentration (IC50) on BET-expressing tumor cells, CCK-8, MM1S; type: cell-based; settings: Homo sapiens, MM1.S, 48/72 h, read-out: IC50 (nM)/MM1S cell line
Experimental: as §1, §2, §3, §4

[7] = system: MDA-MB-453 cells; experiment: Half inhibitory concentration (IC50) on BET-expressing tumor cells, CCK-8, MDA-MB-453; type: cell-based, human; settings: 48/72 h, read-out: IC50 (nM)/MDA-MB-453 cell line
Experimental: as §1, §2, §3, §4

[8] = system: MV-4-11 cells; experiment: Half inhibitory concentration (IC50) on BET-expressing tumor cells, CCK-8, MV-4-11; settings: Homo sapiens, MV4-11, read-out: IC50 (nM)/MV-4-11 cell line, MV-4-11 cells, 48/72 h, CCK-8
[9] = Homo sapiens, MDA-MB-453, MDA-MB-453 cells

Row | SMILES | DC50 [2] [nM] | DC50 [3] [nM] | IC50 ([7]; MDA-MB-453 cells) [nM] | IC50 [1] [nM] | IC50 [4] [nM] | IC50 [5] [nM] | IC50 [6] [nM] | IC50 [7, 9] [nM] | IC50 [8] [nM]
1 | COc1cc(N2CCC(N3CCN(C(=O)CSc4cccc5c4C(=O)N(C4CCC(=O)NC4=O)C5=O)CC3)CC2)ccc1Nc1ncc(Cl)c(Nc2ccccc2P(C)(C)=O)n1 (stereo not shown) [SIAIS164062, 4-((2-(4-(1-(4-((5-chloro-4-((2-(dimethylphosphoryl)phenyl)amino)pyrimidin-2-yl)amino)-3-methoxyphenyl)piperidin-4-yl)piperazin-1-yl)-2-oxoethyl)thio)-2-(2,6-dioxopiperidin-3-yl)isoindoline-1,3-dione] | 6 | 13 |  | 11.6 ± 6.2 |  |  |  |  | 
2 | COc1cc(N2CCC(N3CCN(C(=O)CCSc4cccc5c4C(=O)N(C4CCC(=O)NC4=O)C5=O)CC3)CC2)ccc1Nc1ncc(Cl)c(Nc2ccccc2P(C)(C)=O)n1 (stereo not shown) [SIAIS164063, 4-((3-(4-(1-(4-((5-chloro-4-((2-(dimethylphosphoryl)phenyl)amino)pyrimidin-2-yl)amino)-3-methoxyphenyl)piperidin-4-yl)piperazin-1-yl)-3-oxopropyl)thio)-2-(2,6-dioxopiperidin-3-yl)isoindoline-1,3-dione] | 500 | 500 |  | 15.7 ± 9.8 |  |  |  |  | 
3 | COc1cc(N2CCC(N3CCN(C(=O)CCCSc4cccc5c4C(=O)N(C4CCC(=O)NC4=O)C5=O)CC3)CC2)ccc1Nc1ncc(Cl)c(Nc2ccccc2P(C)(C)=O)n1 (stereo not shown) [SIAIS164064, 4-((4-(4-(1-(4-((5-chloro-4-((2-(dimethylphosphoryl)phenyl)amino)pyrimidin-2-yl)amino)-3-methoxyphenyl)piperidin-4-yl)piperazin-1-yl)-4-oxobutyl)thio)-2-(2,6-dioxopiperidin-3-yl)isoindoline-1,3-dione] | 1.1 | 49 |  | 4.4 ± 2.5 |  |  |  |  | 
4 | COc1cc(N2CCC(N3CCN(C(=O)CCCCCSc4cccc5c4C(=O)N(C4CCC(=O)NC4=O)C5=O)CC3)CC2)ccc1Nc1ncc(Cl)c(Nc2ccccc2P(C)(C)=O)n1 (stereo not shown) [SIAIS164065, 4-((6-(4-(1-(4-((5-chloro-4-((2-(dimethylphosphoryl)phenyl)amino)pyrimidin-2-yl)amino)-3-methoxyphenyl)piperidin-4-yl)piperazin-1-yl)-6-oxohexyl)thio)-2-(2,6-dioxopiperidin-3-yl)isoindoline-1,3-dione] | 5.2 | 173 |  | 2.9 ± 2.7 |  |  |  |  | 
5 | COc1cc(N2CCC(N3CCN(C(=O)CCCCSc4cccc5c4C(=O)N(C4CCC(=O)NC4=O)C5=O)CC3)CC2)ccc1Nc1ncc(Cl)c(Nc2ccccc2P(C)(C)=O)n1 (stereo not shown) [SIAIS164066, 4-((5-(4-(1-(4-((5-chloro-4-((2-(dimethylphosphoryl)phenyl)amino)pyrimidin-2-yl)amino)-3-methoxyphenyl)piperidin-4-yl)piperazin-1-yl)-5-oxopentyl)thio)-2-(2,6-dioxopiperidin-3-yl)isoindoline-1,3-dione] | 5.6 | 11 |  | 4.2 ± 2.9 |  |  |  |  | 
6 | Cc1sc2c(c1C)C(c1ccc(Cl)cc1)=N[C@@H](CC(=O)NCCCSc1cccc3c1C(=O)N(C1CCC(=O)NC1=O)C3=O)c1nnc(C)n1-2 (stereo partly drawn) [SIAIS171013, 2-((S)-4-(4-chlorophenyl)-2,3,9-trimethyl-6H-thieno[3,2-f][1,2,4]triazolo[4,3-a][1,4]diazepin-6-yl)-N-(3-((2-(2,6-dioxopiperidin-3-yl)-1,3-dioxoisoindolin-4-yl)thio)propyl)acetamide] |  |  |  |  | > 300 | > 2820 | 22.6 | 1090 | 8.6 ± 8.7
7 | Cc1sc2c(c1C)C(c1ccc(Cl)cc1)=N[C@@H](CC(=O)NCCSc1cccc3c1C(=O)N(C1CCC(=O)NC1=O)C3=O)c1nnc(C)n1-2 (stereo partly drawn) [SIAIS171036, 2-((S)-4-(4-chlorophenyl)-2,3,9-trimethyl-6H-thieno[3,2-f][1,2,4]triazolo[4,3-a][1,4]diazepin-6-yl)-N-(2-((2-(2,6-dioxopiperidin-3-yl)-1,3-dioxoisoindolin-4-yl)thio)ethyl)acetamide] |  |  | 214 |  | 100 ± 21 | 242 ± 65 | 8.6 | 163 | 4.5 ± 3.2

The next lines start with results.

Row | DC50 [2] [nM] | DC50 [3] [nM] | IC50 ([7]; MDA-MB-453 cells) [nM] | SMILES | IC50 [1] [nM] | IC50 [4] [nM] | IC50 [5] [nM] | IC50 [6] [nM] | IC50 [7, 9] [nM] | IC50 [8] [nM]
8 | 4.1 | 11 |  | COc1cc(N2CCC(N3CCN(C(=O)CCCCCCSc4cccc5c4C(=O)N(C4CCC(=O)NC4=O)C5=O)CC3)CC2)ccc1Nc1ncc(Cl)c(Nc2ccccc2P(C)(C)=O)n1 (stereo not shown) [SIAIS164067, 4-((7-(4-(1-(4-((5-chloro-4-((2-(dimethylphosphoryl)phenyl)amino)pyrimidin-2-yl)amino)-3-methoxyphenyl)piperidin-4-yl)piperazin-1-yl)-7-oxoheptyl)thio)-2-(2,6-dioxopiperidin-3-yl)isoindoline-1,3-dione] | 5.7 ± 3.9 |  |  |  |  | 
9 | 1 to 50 | 50 |  | COc1cc(N2CCC(NC(=O)CCCCCSc3cccc4c3C(=O)N(C3CCC(=O)NC3=O)C4=O)CC2)ccc1Nc1ncc(Cl)c(Nc2ccccc2P(C)(C)=O)n1 (stereo not shown) [SIAIS164141, N-(1-(4-((5-chloro-4-((2-(dimethylphosphoryl)phenyl)amino)pyrimidin-2-yl)amino)-3-methoxyphenyl)piperidin-4-yl)-6-((2-(2,6-dioxopiperidin-3-yl)-1,3-dioxoisoindolin-4-yl)thio)hexanamide] | 3.2 ± 2.4 |  |  |  |  | 
10 |  |  | 162 | Cc1sc2c(c1C)C(c1ccc(Cl)cc1)=N[C@@H](CC(=O)NCCCCCCSc1cccc3c1C(=O)N(C1CCC(=O)NC1=O)C3=O)c1nnc(C)n1-2 (stereo partly drawn) [SIAIS171039, 2-((S)-4-(4-chlorophenyl)-2,3,9-trimethyl-6H-thieno[3,2-f][1,2,4]triazolo[4,3-a][1,4]diazepin-6-yl)-N-(6-((2-(2,6-dioxopiperidin-3-yl)-1,3-dioxoisoindolin-4-yl)thio)hexyl)acetamide] |  | 92 ± 43 | 98 ± 82 | 0.82 | 167 | 2.7 ± 2.5
11 |  |  | 75.7 | Cc1sc2c(c1C)C(c1ccc(Cl)cc1)=N[C@@H](CC(=O)NCCCCCCCSc1cccc3c1C(=O)N(C1CCC(=O)NC1=O)C3=O)c1nnc(C)n1-2 (stereo partly drawn) [SIAIS171040, 2-((S)-4-(4-chlorophenyl)-2,3,9-trimethyl-6H-thieno[3,2-f][1,2,4]triazolo[4,3-a][1,4]diazepin-6-yl)-N-(7-((2-(2,6-dioxopiperidin-3-yl)-1,3-dioxoisoindolin-4-yl)thio)heptyl)acetamide] |  | 46 ± 12 | 69 ± 38 | 2.78 | 85 | 2.2 ± 2
12 | 0.1 to 1 |  |  | COc1cc(N2CCC(N3CCN(CCCCCCSc4cccc5c4CN(C4CCC(=O)NC4=O)C5=O)CC3)CC2)ccc1Nc1ncc(Cl)c(Nc2ccccc2P(C)(C)=O)n1 (stereo not shown) [SIAIS219098, 3-(4-((6-(4-(1-(4-((5-chloro-4-((2-(dimethylphosphoryl)phenyl)amino)pyrimidin-2-yl)amino)-3-methoxyphenyl)piperidin-4-yl)piperazin-1-yl)hexyl)thio)-1-oxoisoindolin-2-yl)piperidine-2,6-dione] | 0.7 ± 0.2 |  |  |  |  | 
13 | 50 to 500 | 500 |  | COc1cc(N2CCN(C(=O)CCCCCSc3cccc4c3C(=O)N(C3CCC(=O)NC3=O)C4=O)CC2)ccc1Nc1ncc(Cl)c(Nc2ccccc2P(C)(C)=O)n1 (stereo not shown) [SIAIS1197121, 4-((6-(4-(4-((5-chloro-4-((2-(dimethylphosphoryl)phenyl)amino)pyrimidin-2-yl)amino)-3-methoxyphenyl)piperazin-1-yl)-6-oxohexyl)thio)-2-(2,6-dioxopiperidin-3-yl)isoindoline-1,3-dione] | 7.4 ± 4.8 |  |  |  |  | 
